These results are taken from EP1054888B1 (priority 1998, dated 1999).

SMILES strings stand for the structures. Values after ≈ are worked out from the molar mass of the structure shown. Where only a bound is given, the exact number is not on record here.

What all share (assay): microbe, parasite or virus in culture
Assay type in all cases: cell-based

In assay [1] the test system is Magnaporthe grisea f. sp. oryzae. The following applies: Pyricularia oryzae, read-out: MIC (Minimum Inhibitory Concentration) PYRIOR, Table II; total inhibition of mycelial growth, V8 juice nutrient solution, 6-12 days at 18-25°C, visual inspection.
The next assay has as its system Rhizoctonia solani. The following applies: read-out: MIC (Minimum Inhibitory Concentration) RHIZSO.
The next assay relates to Phytophthora infestans. The following applies: read-out: MIC (Minimum Inhibitory Concentration) PHYTIN.
The test system of another assay is Alternaria solani. The following applies: read-out: MIC (Minimum Inhibitory Concentration) ALTESO.
The next assay deals with Botrytis cinerea. The following applies: read-out: MIC (Minimum Inhibitory Concentration) BOTRCI.
A further assay relates to Leptosphaeria nodorum. The following applies: Parastagonospora nodorum, read-out: MIC (Minimum Inhibitory Concentration) LEPTNO.
For another assay, the system named is Pyrenophora teres. The following applies: read-out: MIC (Minimum Inhibitory Concentration) PYRNTE.

For `CCc1c(-c2c(F)cccc2Cl)c(Cl)nc2ncnn12` [Example 24], the MIC was < 0.05 µg/mL in assay [1]; 6.25 µg/mL (≈ 20.1 µM) with Rhizoctonia solani; > 100 µg/mL in the assay on Phytophthora infestans; 12.5 µg/mL (≈ 40.2 µM) with Alternaria solani; 6.25 µg/mL (≈ 20.1 µM) in the assay with Botrytis cinerea; 3.13 µg/mL (≈ 10.1 µM) in the assay with Leptosphaeria nodorum. Further, in the assay on Pyrenophora teres, the MIC is > 100 µg/mL.

For `CCCc1c(-c2c(F)cccc2Cl)c(Cl)nc2ncnn12` [Example 25], the MIC in assay [1] was 0.1 µg/mL (≈ 0.308 µM); in the assay with Rhizoctonia solani, 1.56 µg/mL (≈ 4.8 µM); in the assay with Phytophthora infestans, 12.5 µg/mL (≈ 38.4 µM); with Alternaria solani, 1.56 µg/mL (≈ 4.8 µM); in the assay with Botrytis cinerea, 0.78 µg/mL (≈ 2.4 µM); in the assay on Leptosphaeria nodorum it was > 100 µg/mL. Moreover, in the assay on Pyrenophora teres, the MIC worked out at 3.13 µg/mL (≈ 9.63 µM).

On to `CC(C)Cc1c(-c2c(F)cccc2Cl)c(Cl)nc2ncnn12` [Example 26], for which the MIC in assay [1] is < 0.05 µg/mL; in the assay on Rhizoctonia solani it was 0.78 µg/mL (≈ 2.3 µM); with Phytophthora infestans, > 100 µg/mL; in the assay with Alternaria solani, 0.78 µg/mL (≈ 2.3 µM); in the assay on Botrytis cinerea, 0.2 µg/mL (≈ 0.59 µM); in the assay with Leptosphaeria nodorum, 0.39 µg/mL (≈ 1.15 µM). For the same molecule, the MIC with Pyrenophora teres is 3.13 µg/mL (≈ 9.23 µM).

In the case of `CC(C)c1c(-c2c(F)cccc2Cl)c(Cl)nc2ncnn12` [Example 27], the MIC in assay [1] was 0.2 µg/mL (≈ 0.615 µM); in the assay with Rhizoctonia solani, 0.39 µg/mL (≈ 1.2 µM); in the assay with Phytophthora infestans, > 100 µg/mL; in the assay on Alternaria solani, > 100 µg/mL; in the assay with Botrytis cinerea, 0.78 µg/mL (≈ 2.4 µM); with Leptosphaeria nodorum it was 1.56 µg/mL (≈ 4.8 µM). Also, the MIC with Pyrenophora teres is > 100 µg/mL.

Turning to `CCC(C)c1c(-c2c(F)cccc2Cl)c(Cl)nc2ncnn12` (stereo not drawn) [Example 28], the MIC in assay [1] is 1.56 µg/mL (≈ 4.6 µM); in the assay on Rhizoctonia solani, 0.78 µg/mL (≈ 2.3 µM); in the assay with Phytophthora infestans, > 100 µg/mL; with Alternaria solani it was 6.25 µg/mL (≈ 18.4 µM); in the assay with Botrytis cinerea it was 3.13 µg/mL (≈ 9.23 µM); with Leptosphaeria nodorum it was > 100 µg/mL. Moreover, the MIC with Pyrenophora teres is 6.25 µg/mL (≈ 18.4 µM).

Turning to `Fc1cccc(Cl)c1-c1c(Cl)nc2ncnn2c1C1CCCC1` [Example 29], the MIC in assay [1] is < 0.05 µg/mL; in the assay on Rhizoctonia solani, 0.78 µg/mL (≈ 2.22 µM); in the assay with Phytophthora infestans, > 100 µg/mL; in the assay on Alternaria solani, 0.78 µg/mL (≈ 2.22 µM); in the assay on Botrytis cinerea it was 1.56 µg/mL (≈ 4.44 µM); in the assay with Leptosphaeria nodorum it was 0.39 µg/mL (≈ 1.11 µM). Besides, the MIC in the assay on Pyrenophora teres amounted to 0.78 µg/mL (≈ 2.22 µM).

Regarding `Fc1cccc(Cl)c1-c1c(Cl)nc2ncnn2c1C1CCCCC1` [Example 30], the MIC in assay [1] is < 0.05 µg/mL; in the assay with Rhizoctonia solani, > 100 µg/mL; in the assay with Phytophthora infestans it was > 100 µg/mL; in the assay on Alternaria solani, < 0.05 µg/mL; in the assay with Botrytis cinerea, < 0.05 µg/mL; with Leptosphaeria nodorum it was 25 µg/mL (≈ 68.4 µM). The MIC in the assay on Pyrenophora teres turned out to be 0.2 µg/mL (≈ 0.548 µM).

On to `Fc1cccc(Cl)c1-c1c(Cl)nc2ncnn2c1CCC(F)(F)F` [Example 32], for which the MIC in assay [1] was 0.2 µg/mL (≈ 0.528 µM); in the assay on Rhizoctonia solani, 6.25 µg/mL (≈ 16.5 µM); in the assay on Phytophthora infestans, 50 µg/mL (≈ 132 µM); with Alternaria solani, 3.13 µg/mL (≈ 8.26 µM); in the assay on Botrytis cinerea, 0.78 µg/mL (≈ 2.06 µM); in the assay on Leptosphaeria nodorum, > 100 µg/mL. The MIC in the assay on Pyrenophora teres worked out at 12.5 µg/mL (≈ 33 µM).

As to `Cc1cccc(C)c1-c1c(-c2c(F)cccc2Cl)c(Cl)nc2ncnn12` [Example 33], the MIC is 12.5 µg/mL (≈ 32.3 µM) in assay [1]; > 100 µg/mL in the assay on Rhizoctonia solani; 6.25 µg/mL (≈ 16.1 µM) in the assay on Phytophthora infestans; > 100 µg/mL in the assay with Alternaria solani; > 100 µg/mL in the assay on Botrytis cinerea; > 100 µg/mL in the assay with Leptosphaeria nodorum. Besides, in the assay on Pyrenophora teres, the MIC is > 100 µg/mL.

Take `Cc1cccc(-c2c(-c3c(F)cccc3Cl)c(Cl)nc3ncnn23)c1` [Example 34]: the MIC in assay [1] was 0.78 µg/mL (≈ 2.09 µM); in the assay on Rhizoctonia solani, > 100 µg/mL; in the assay with Phytophthora infestans it was 50 µg/mL (≈ 134 µM); with Alternaria solani, 1.56 µg/mL (≈ 4.18 µM); with Botrytis cinerea it was 6.25 µg/mL (≈ 16.7 µM); in the assay with Leptosphaeria nodorum, 25 µg/mL (≈ 67 µM). For the same molecule, the MIC in the assay on Pyrenophora teres is > 100 µg/mL.

For the molecule `Cc1ccccc1-c1c(-c2c(F)cccc2Cl)c(Cl)nc2ncnn12` [Example 35], the MIC was found to be 0.78 µg/mL (≈ 2.09 µM) in assay [1]; 3.13 µg/mL (≈ 8.39 µM) with Rhizoctonia solani; 25 µg/mL (≈ 67 µM) in the assay on Phytophthora infestans; 3.13 µg/mL (≈ 8.39 µM) in the assay on Alternaria solani; 3.13 µg/mL (≈ 8.39 µM) in the assay with Botrytis cinerea; 6.25 µg/mL (≈ 16.7 µM) in the assay on Leptosphaeria nodorum. The MIC in the assay on Pyrenophora teres was > 100 µg/mL.

On to `O=C1CCCC(=O)C1c1c(-c2c(F)cccc2Cl)c(Cl)nc2ncnn12` [Example 36], for which the MIC in assay [1] was > 100 µg/mL; in the assay on Rhizoctonia solani it was > 100 µg/mL; in the assay with Phytophthora infestans, 12.5 µg/mL (≈ 31.8 µM); in the assay on Alternaria solani, > 100 µg/mL; in the assay on Botrytis cinerea it was > 100 µg/mL; in the assay on Leptosphaeria nodorum it was > 100 µg/mL. In addition, the MIC in the assay with Pyrenophora teres was > 100 µg/mL.
